Source: US12503448B2, “Antibacterial and antiparasitic quinoxaline-2,3-diamine derivatives” (University College Cardiff Consultants Limited, priority 2019, dated 2025)
In brackets after ≈: the same amount, converted by molar mass. Where two headings read alike, the source gives them in different places. Blank lines part the entries; values can stand above or below the compound they belong to.

Tests used:
[1] = system: Streptococcus pneumoniae 21394; experiment: Antibacterial MIC (ISO 20776-1); format: cell-based; details: Streptococcus pneumoniae, 21394
Description: (§1) In vitro Determination of Antibacterial Activity
(§2) Scientific Reports 8 (1), 2018. Bacterial strains of Enterococcus faecalis—ATCC 29212, NCTC 12201, ATCC 51299; Streptococcus pneumoniae—ATCC 49619, 18778, 21394, 21395; Haemophilus influenza—ATCC 49766, 18391, 17428; Staphylococcus aureus—NCTC 12493, ATCC BAA-077, ATCC 700698, 11051; used for testing the compounds, as previously described in “Clinical laboratory testing and in vitro diagnostics test systems—Susceptibility testing of infectious agents and evaluation of performance of antimicrobial susceptibility devices—Part 1: Reference methods for testing the in vitro activity of antimicrobial agentes against bacteria involved in infectious diseases, ISO/FDIS 20776-1:2006(E). All the procedures were carried out in a biosafety containment level 2.

[2] = system: Streptococcus pneumoniae 18778; experiment: Antibacterial MIC (ISO 20776-1); format: cell-based; details: Streptococcus pneumoniae, 18778
Description: as §1, §2

[3] = system: Haemophilus influenzae ATCC 49766; experiment: Antibacterial MIC (ISO 20776-1); format: cell-based; details: ATCC49766
Description: as §1, §2

[4] = system: Staphylococcus aureus ATCC BAA-977; experiment: Antibacterial MIC (ISO 20776-1); format: cell-based; details: Staphylococcus aureus, ATCCBAA977
Description: as §1, §2

[5] = system: Haemophilus influenzae 18391; experiment: Antibacterial MIC (ISO 20776-1); format: cell-based; details: Haemophilus influenzae 18391, AMP/COA resistance, PBP/β-lactamase
Description: as §1, §2

[6] = system: Enterococcus faecalis NCTC 12201; experiment: Antibacterial MIC (ISO 20776-1); format: cell-based; details: NCTC12201; Enterococcus faecalis NCTC 12201, Vancomycin resistance, vanA
Description: as §1, §2

[7] = system: Enterococcus faecalis ATCC 29212; experiment: Antibacterial MIC (ISO 20776-1); format: cell-based; details: Enterococcus faecalis, ATCC29212
Description: as §1, §2

[8] = system: Staphylococcus aureus NCTC 12493; experiment: Antibacterial MIC (ISO 20776-1); format: cell-based; details: Staphylococcus aureus, NCTC12493
Description: as §1, §2

[9] = system: Staphylococcus aureus ATCC 700698; experiment: Antibacterial MIC (ISO 20776-1); format: cell-based; details: ATCC700698; Staphylococcus aureus ATCC 700698, Vancomycin resistance, hVISA; read-out: MIC
Description: as §1, §2

[10] = system: Streptococcus pneumoniae ATCC 49619; experiment: Antibacterial MIC (ISO 20776-1); format: cell-based; details: Streptococcus pneumoniae, ATCC49619
Description: as §1, §2

[11] = system: Haemophilus influenzae 17428; experiment: Antibacterial MIC (ISO 20776-1); format: cell-based; details: Haemophilus influenzae 17428, Ampicillin resistance, PBP
Description: as §1, §2

[12] = system: Staphylococcus aureus 11051; experiment: Antibacterial MIC (ISO 20776-1); format: cell-based; details: Staphylococcus aureus, 11051
Description: as §1, §2

[13] = system: Enterococcus faecalis ATCC 51299; experiment: Antibacterial MIC (ISO 20776-1); format: cell-based; details: ATCC51299; Enterococcus faecalis ATCC 51299, Vancomycin resistance, vanB
Description: as §1, §2

[14] = system: Streptococcus pneumoniae 21395; experiment: Antibacterial MIC (ISO 20776-1); format: cell-based; details: Streptococcus pneumoniae, 21395
Description: as §1, §2

[15] = system: S. mansoni schistosomula; experiment: 72 hours schistosomula drug screen; format: cell-based, Schistosoma mansoni; details: for Selectivity Index Schistosomula: HepG2 CC50 over schistosomula EC50; for EC50: Schistosoma mansoni
Experimental: Biological Screening 72 Hours Schistosomula Drug Screen […] G. Colley, […], Schistosoma mansoni: simplified method for the production of schistosomules., Exp. Parasitol. 35 (1974) 44-51. Newly transformed schistosomula were prepared for 72 hour high throughput screening (HTS) in 384-well black-sided microtiter plates (Perkin Elmer, MA, USA) as described in M. Nur-e-alam, M. Yousaf, […]. Bari, H. A. Ghabbour, […]. Ho, A. J. […], Neoclerodane Diterpenoids from […], Teucrium […]. Nat. […] The data obtained in this manner is shown in Table 1 in the columns labelled “Phenotype”, “Motility” and “Schistosomula average”.

[16] = system: MRSA USA 300; experiment: In vitro antibacterial activity; format: cell-based; details: Staphylococcus aureus
[17] = system: S. epidermidis NTCT11077; experiment: In vitro antibacterial activity; format: cell-based; details: Staphylococcus epidermidis, NTCT11077
[18] = system: M. smegmatis mc^2 15 ATCC 700084; experiment: In vitro antibacterial activity; format: cell-based, Mycobacterium smegmatis; details: Mycolicibacterium smegmatis, ATCC700084
[19] = system: MRSA EM RSA; experiment: In vitro antibacterial activity; format: cell-based; details: Staphylococcus aureus
Description: as §1, §2

[20] = system: S. aureus ATCC 29213; experiment: In vitro antibacterial activity; format: cell-based; details: Staphylococcus aureus, ATCC29213
[21] = system: E. coli ATCC 25922; experiment: In vitro antibacterial activity; format: cell-based; details: Escherichia coli, ATCC25922
[22] = system: MRSA ATCC 33591; experiment: In vitro antibacterial activity; format: cell-based; details: Staphylococcus aureus
[23] = system: Pseudomonas aeruginosa ATCC 27853; experiment: In vitro antibacterial activity; format: cell-based; details: Pseudomonas aeruginosa, ATCC27853
[24] = system: B. cereus; experiment: In vitro antibacterial activity; format: cell-based; details: Bacillus cereus; B. cereus; read-out: MIC90
[25] = system: F. hepatica newly excysted juveniles (NEJs); experiment: Newly excysted juveniles (NEJs) drug screen; format: cell-based, Fasciola hepatica; design: scale not given here; details: 10 μM, 72 h; higher score indicates lower worm activity
Experimental: Newly Excysted Juveniles (NEJs) Drug Screen
F. hepatica (Italian strain) metacercariae were obtained from Ridgeway Research, Gloucestershire, UK and stored at 4° C. Newly excysted juveniles (NEJs) from metacercariae were produced based on an optimisation introduced to the excystment method published by Dixon et al. and Wilson et al (Dixon, K. E., The physiology of excystment of the metacercaria of Fasciola hepática L. Parasitology, 1966, 56, 431-456.; Wilson, L. R., Good, R. T., Panaccio, M., Wijffels, G. L., Sandeman, R. M., Spithill, T. W, Fasciola hepatica: Characterization and Cloning of the Major Cathepsin B Protease Secreted by Newly Excysted Juvenile Liver Fluke. Experimental Parasitology 1998, 88, 85-94).
After excystment, NEJs were distributed into a 24 well tissue culture plate at a density of 25 parasites per well containing 1 mL of pre-warmed NEJs culture media. Compounds were added to respective wells and NEJ/compound co-cultures were incubated at 37° C. in an atmosphere containing 5% CO2 for 72 hours at a final concentration of 10 μM.
F. hepatica NEJs (25 per well) were incubated with the three compounds at a concentration of 10 μM (in 0.1% DMSO) and cultured for 72 hrs at 37° C. in an atmosphere containing 5% CO2. Control wells (25 NEJs per well) included those containing 0.1% DMSO (solvent) and RMPI (media) as negative controls or 10 μM Triclabendazole (0.1% DMSO, as positive control, labelled “Tbz” (Comp. 3). After 72 hrs, all NEJs were scored for phenotype and motility metrics. For each treatment, an average of both phenotype and motility score was calculated based on the individual parasite scores (across two independent replicates), wherein a higher score indicates lower worm activity. SD is reported on the bar chart.

[26] = MTT assay on HepG2 cells; format: cell-based; details: human
Experimental: MTT Assay on HepG2 Cells Human Hepatocyte Carcinoma (HepG2) cells (85011430, Sigma Aldrich) were used to assess the overt toxicity of these anti-infective compounds. […] A negative control (1% v/v Triton X-100; X100, Sigma-Aldrich) was also included in each screen. After addition of compounds, each plate was then incubated for a further 20 hrs before application of MTT reagent (prepared as described in Nur-[…], Bari A, Ghabbour […], Hoffmann […] Nat Prod. 2017 Jun. 23; 80(6):1900-1908 for the assessment of compound cytotoxicity using the MTT assay. […] The plate was then further incubated for 4 hrs. After incubation, each plate was blotted dry under the laminar flow to remove the MTT treated culture media. A 100 μl DMSO: isopropanol (1:1) solution was then added to each well and the plate was then subsequently incubated for 10 minutes at 37° C. Following incubation, each plate was shaken again and then absorbance measured at 570 nm. The absorbance reading was corrected based on the average value of the wells used as blank (no cells). […] The data obtained in this manner is shown in Table 1 in the columns labelled “HepG2”. […] The selectivity indexes for schistosomula and adult worms are shown in the final two columns in Table 1.

[27] = average of phenotype and motility, read-out: EC50 Schistosomula average
[28] = schistosomula, 72 hour culture, read-out: EC50 Motility
[29] = schistosomula, 72 hour culture, read-out: EC50 Phenotype

SMILES: O=C(Nc1ccc2nc(Nc3ccc(Cl)c(Cl)c3)c(Nc3ccc(Cl)c(Cl)c3)nc2c1)c1ccco1 [Compound 19, N-(2,3-bis((3,4-dichlorophenyl)amino)quinoxalin-6-yl)furan-2-carboxamide]
MIC [1]: 8 µg/mL (≈ 14.3 µM) | MIC [2]: 8 µg/mL (≈ 14.3 µM) | MIC [3]: 64 µg/mL (≈ 114 µM) | MIC [4]: 8 µg/mL (≈ 14.3 µM) | MIC [5]: 64 µg/mL (≈ 114 µM) | MIC [6]: 0.25 µg/mL (≈ 0.447 µM) | MIC [7]: 4 µg/mL (≈ 7.15 µM) | MIC [8]: 1 µg/mL (≈ 1.79 µM) | MIC [9]: 8 µg/mL (≈ 14.3 µM) | MIC [10]: 8 µg/mL (≈ 14.3 µM) | MIC [11]: 64 µg/mL (≈ 114 µM) | MIC [12]: 8 µg/mL (≈ 14.3 µM) | MIC [13]: 2 µg/mL (≈ 3.58 µM) | MIC [14]: 8 µg/mL (≈ 14.3 µM) | Selectivity Index Schistosomula [15]: 8 | EC50 [15, 27]: 1.94 µM | EC50 [15, 28]: 1.33 µM | EC50 [15, 29]: 2.54 µM | MIC90 [16]: 62.5 µg/mL (≈ 112 µM) | MIC90 [17]: 125 µg/mL (≈ 224 µM) | MIC90 [18]: > 125 µg/mL | MIC90 [19]: 62.5 µg/mL (≈ 112 µM) | MIC90 [20]: 31.2 µg/mL (≈ 55.9 µM) | MIC90 [21]: > 125 µg/mL | MIC90 [22]: 15.6 µg/mL (≈ 27.9 µM) | MIC90 [23]: > 125 µg/mL | MIC90 [24]: < 62.5 µg/mL | Motility (M) Mean score [25]: 3.36 | Phenotype (P) Mean score [25]: 3.40

EC50 [15, 27]: 4.41 µM | EC50 [15, 28]: 4.51 µM | EC50 [15, 29]: 4.31 µM
SMILES: c1ccc(/N=c2\sc3ccccc3s\c2=N/c2ccccc2)cc1 [Compound 20]
Selectivity Index Schistosomula [15]: 3 | CC50 at 24 h [26]: 13.8 µM

EC50 [15, 28]: 1.23 µM | EC50 [15, 29]: 1.62 µM
SMILES: Cc1cccc(Nc2nc3ccc([N+](=O)[O-])cc3nc2Nc2cccc(C)c2)c1 [Compound 21]
Selectivity Index Schistosomula [15]: 11 | CC50 at 24 h [26]: 15.6 µM
